This assay has as its system HeLa thapsigargin-induced death, ATPlite luminescence, 24 h. The assay can be described thus: protection from thapsigargin-induced HeLa death, SAR follow-up, cell-based, HeLa cervical carcinoma, ATP content (AID 1356). The following applies: at 25 µM, stronger effect = higher value.
[1] abbreviates: measured here: survival at thapsigargin 15 uM.
Where [2] appears, read: measured here: survival at thapsigargin 20 uM.
The mark [3] stands for this setting: measured here: survival, thapsigargin level col 9.
Setting [4] is: measured here: survival, thapsigargin level col 10.

Each structure is given as a SMILES string.

Regarding `CCCOc1ccc(C2Nc3ccccc3NC3=C2C(=O)CC(c2ccc(OC)c(OC)c2)C3)cc1` (stereo not given), the survival is 91%. The compound further displayed a survival under setting [1] of 109%. In addition, under setting [2], the survival amounted to 90%. The survival under setting [3] came to 88%. For the same compound, the survival under setting [4] came to 90%.

As to `COc1ccc(C2CC(=O)C3=C(C2)Nc2ccccc2NC3c2cccc(C(F)(F)F)c2)cc1OC` (stereo not given), the survival is 90%. Under setting [1], this compound came in with a survival of 100%. This compound also registered a survival under setting [2] of 122%. The compound also had a survival under setting [3] of 88%. The same compound had a survival under setting [4] of 90%.

On to `CSc1ccc(C2Nc3ccccc3NC3=C2C(=O)CC(c2ccccc2)C3)cc1` (stereo not given), for which the survival is 85%. The compound also yielded a survival under setting [1] of 77%. The survival under setting [2] came to 23%. The same compound had a survival under setting [3] of 81%. Further, under setting [4], the survival came out at 83%.

For `O=C1CC(c2ccccc2)CC2=C1C(c1c(F)cccc1Cl)Nc1ccccc1N2` (stereo not given), the survival was 118%. The same compound displayed a survival under setting [1] of 89%. Besides, under setting [2], the survival came to 18%. For the same compound, the survival under setting [3] was 93%. In addition, the survival under setting [4] came out at 99%.

For `COc1ccc(C2CC(=O)C3=C(C2)Nc2ccccc2NC3c2cccc(Oc3ccccc3)c2)cc1OC` (stereo not given), the survival is 90%. Under setting [1], this compound registered a survival of 96%. The same compound showed a survival under setting [2] of 102%. For the same compound, the survival under setting [3] worked out at 87%. Also, the survival under setting [4] turned out to be 85%.

Take `COc1ccc(C2CC(=O)C3=C(C2)Nc2ccccc2NC3c2cccc(Br)c2)cc1OC` (stereo not given): the survival was 87%. For the same compound, under setting [1], the survival worked out at 93%. In addition, under setting [2], the survival was found to be 90%. This compound also registered a survival under setting [3] of 86%. The compound also returned a survival under setting [4] of 92%.

On to `CCOc1cccc(C2Nc3ccccc3NC3=C2C(=O)CC(c2ccc(OC)cc2)C3)c1` (stereo not given), for which the survival was 96%. Under setting [1], this compound came in with a survival of 8%. Also, under setting [2], the survival stood at 3%. Besides, the survival under setting [3] is 81%. Under setting [4], this compound yielded a survival of 106%.

Take `COc1ccc(C2CC(=O)C3=C(C2)Nc2ccccc2NC3c2ccccc2C(F)(F)F)cc1OC` (stereo not given): the survival was 92%. Under setting [1], this compound had a survival of 107%. In addition, the survival under setting [2] is 72%. Also, the survival under setting [3] was 93%. Further, the survival under setting [4] was determined as 91%.

As for `COc1ccc(C2CC(=O)C3=C(C2)Nc2ccccc2NC3c2cc(C)ccc2C)cc1` (stereo not given), the survival is 99%. For the same compound, under setting [1], the survival came to 83%. The survival under setting [2] came to 24%. In addition, the survival under setting [3] came out at 80%. For the same compound, the survival under setting [4] was 81%.

For the compound `CCOc1cc(C2Nc3ccccc3NC3=C2C(=O)CC(c2ccc(OC)cc2)C3)cc(Cl)c1O` (stereo not given), the survival is 129%. This compound also yielded a survival under setting [1] of 29%. Under setting [2], this compound came in with a survival of 8%. This compound also yielded a survival under setting [3] of 90%. This compound also displayed a survival under setting [4] of 106%.

With `CC1(C)CC(=O)C2=C(C1)Nc1ccccc1NC2c1ccc(-c2ccccc2)cc1` (stereo not given), the survival was 97%. This compound registered a survival under setting [1] of 106%. The compound further displayed a survival under setting [2] of 114%. Under setting [3], this compound had a survival of 92%. This compound showed a survival under setting [4] of 88%.

(Values after PubChem BioAssay AID1356 (Sanford-Burnham Center for Chemical Genomics, 2008).)
